Experiments:
Type in all cases: cell-based, M. maize
tRNA^pyl/pylRS^AF = biological target: T1, tRNA^pyl/pylRS^AF (Methanosarcina mazei, UniProt Q8PWY1, Y306A/Y384F); assay: UAA dependent amber suppression in HeLa cells (NLS-mCherry-^TAGGFP, automated microscope), RS^AF; settings: HeLa nuclei, 24 h after transfection
T1 construct: expressed in transfected cells; host or cells: HeLa Kyoto cells, plasmid pCMV tRNA^pyl/pylRS^AF
Excerpt: (§1) A single expression plasmid for expression of both tRNA^pyl and the pyrrolysine synthetase pylRS was generated by replacing the tRNA and synthetase of mammalian UAA expression plasmid pSWAN (Liu et al., Nat Methods 2007, 4: 239) with a synthetic gene derived from the plasmid pEVOL tRNA^pyl/pylRS^WT or pEVOL tRNA^pyl/pylRS^AF.
(§2) For mammalian amber suppression studies, a NLS-mCherry-^TAGGFP fusion protein was generated. Due to the nuclear localization sequence (NLS) the expressed protein was targeted to the nucleus. Accordingly, mCherry expression was visible by orange fluorescence in the nucleus signifying the successful transfection of the plasmid. Green fluorescence indicated successful GFP expression due to successful co-transfection of the appropriate tRNA^pyl/pylRS plasmid and suppression of the amber codon in the fused ^TAGGFP.
(§3) UAA concentration dependent GFP expression in the presence of UAA 1, 13, 16 or 17 and RS^WT or RS^AF was analyzed using the following automated microscope procedure.
(§4) HeLa Kyoto cells were grown in DMEM low glucose medium (1 g/l) (Sigma, Munich, Germany) with 10% FBS (Sigma) and 1% L-glutamine. 10−20×10^3 cells per well were seeded in a glass bottom 24-well chamber and cultured overnight. On the next-day, the growth medium was exchanged for fresh one supplied with increasing concentrations of UAA (0, 1, 10, 100, 250, 1000 μM), and the cells were co-transfected (1:1 ratio) with plasmids-carrying NLS-mCherry-^TAGGFP and the respective tRNA^pyl/pylRS pair (RS^WT or RS^AF) using jetPRIME transfection reagent following the manufacturer protocol (Polyplus-transfection. SA, Illkirch, France). 24 h after transfection, cells were stained with Hoechst 33342 (1 μg/ml, 10 min), fixed with 2% paraformaldehyde (15 min, RT) and kept in PBS for imaging. For every UAA concentration, the experiment was repeated twice and in two independently prepared 24 well chambers.
(§5) Microscopy imaging was performed using automated widefield Olympus ScanR microscope (objective UplanApo 20×, 0.70 NA, Hamamatsu Orca R2 CCD camera) in, three channels (Hoechst, GFP, mCherry). For every well at least 25 images (1344×1024 pixels; 433×330 μm, 12-bit) were acquired (exposure times: 30 ms Hoechst, 100 ms mCherry, 100 ms for GFP). Hoechst staining allowed use of the automated focus option of the system. Images were analyzed using the ImageJ macro (http://fiji.sc/wiki/index.php) allowing quantification of GFP fluorescence intensity in the cells showing mCherry fluorescence signal. Hoechst staining was used to threshold and select nuclei. For every detected nucleus, intensities, in the mCherry and GFP channels were quantified. Background intensities in GFP and mCherry channel were measured using one well of each chamber containing cells that were not transfected but stained with Hoechst. Those background values set the threshold to discriminate cells expressing mCherry from the background. For every well the average intensity of GFP (IGFP) in cells positive for GFP and mCherry signals was determined as a measure of successful UAA incorporation. GFP intensities were normalized separately for every UAA based on the maximal observed signal (either for RS^WT or RS^AF).

[1] = biological target: T2, mutant pyrrolysyl tRNA synthetase comprising amino acid substitutions Y306A and Y384F (pylRS^AF) (Methanosarcina mazei, UniProt Q8PWY1, Y306A/Y384F); assay: Expression of GFP^TAG in E. coli in presence of UAA (amber suppression) with tRNA^pyl/pylRS^AF; settings: 1 mM UAA; for incorporation by RS^AF (GFP fluorescence, SDS-PAGE): FIG. 6; for Expression of GFP^TAG protein: pylRS^WT or pylRS^AF, compared to negative control (FIG. 1)
T2 construct: expressed in transfected cells; host or cells: E. coli Top10, plasmid pEVOL tRNA^pyl/pylRS^AF
T2 sequence (Q8PWY1 whole entry Y306A/Y384F): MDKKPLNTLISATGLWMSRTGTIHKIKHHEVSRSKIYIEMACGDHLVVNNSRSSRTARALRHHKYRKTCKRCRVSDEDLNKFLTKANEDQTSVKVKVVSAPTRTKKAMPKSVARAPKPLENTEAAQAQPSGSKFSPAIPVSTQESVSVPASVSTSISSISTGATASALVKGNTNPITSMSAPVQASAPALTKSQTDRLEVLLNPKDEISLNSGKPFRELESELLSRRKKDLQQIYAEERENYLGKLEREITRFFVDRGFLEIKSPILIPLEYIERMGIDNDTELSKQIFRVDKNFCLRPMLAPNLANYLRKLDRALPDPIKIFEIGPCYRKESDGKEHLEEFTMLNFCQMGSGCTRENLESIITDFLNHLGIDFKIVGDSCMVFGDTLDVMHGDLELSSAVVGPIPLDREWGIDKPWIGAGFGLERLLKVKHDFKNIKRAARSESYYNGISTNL

tRNA^pyl/pylRS^WT = biological target: T3, tRNA^pyl/pylRS^WT (Methanosarcina mazei, UniProt Q8PWY1); assay: UAA dependent amber suppression in HeLa cells (NLS-mCherry-^TAGGFP, automated microscope), RS^WT; settings: HeLa nuclei, 24 h after transfection
T3 construct: expressed in transfected cells; host or cells: HeLa Kyoto cells, plasmid pCMV tRNA^pyl/pylRS^WT
T3 sequence (Q8PWY1 whole entry): as the sequence (Q8PWY1 whole entry Y306A/Y384F) above, with A306Y, F384Y counted along it
Excerpt: as §1, §2, §3, §4, §5

[2] = biological target: T4, wildtype pyrrolysyl tRNA synthetase (pylRS^WT) (Methanosarcina mazei, UniProt Q8PWY1); assay: Expression of GFP^TAG in E. coli in presence of UAA (amber suppression) with tRNA^pyl/pylRS^WT; settings: 1 mM UAA, FIG. 6
T4 construct: expressed in transfected cells; host or cells: E. coli Top10, plasmid pEVOL tRNA^pyl/pylRS^WT
T4 sequence (Q8PWY1 whole entry): as the sequence (Q8PWY1 whole entry Y306A/Y384F) above, with A306Y, F384Y counted along it

T1 sequence (Q8PWY1 whole entry Y306A/Y384F): as the sequence (Q8PWY1 whole entry Y306A/Y384F) above

| SMILES | IGFP (average intensity of GFP, normalized) (tRNA^pyl/pylRS^AF; 1 μM UAA) | IGFP (average intensity of GFP, normalized) (tRNA^pyl/pylRS^AF; 10 μM UAA) | IGFP (average intensity of GFP, normalized) (tRNA^pyl/pylRS^AF; 100 μM UAA) | IGFP (average intensity of GFP, normalized) (tRNA^pyl/pylRS^AF; 250 μM UAA) | IGFP (average intensity of GFP, normalized) (tRNA^pyl/pylRS^AF; 1000 μM UAA) | incorporation by RS^AF (GFP fluorescence, SDS-PAGE) [1] | Expression of GFP^TAG protein [1] | IGFP (average intensity of GFP, normalized) (tRNA^pyl/pylRS^WT; 1 μM UAA) | IGFP (average intensity of GFP, normalized) (tRNA^pyl/pylRS^WT; 10 μM UAA) | IGFP (average intensity of GFP, normalized) (tRNA^pyl/pylRS^WT; 100 μM UAA) | IGFP (average intensity of GFP, normalized) (tRNA^pyl/pylRS^WT; 250 μM UAA) | IGFP (average intensity of GFP, normalized) (tRNA^pyl/pylRS^WT; 1000 μM UAA) | Incorporation by RS^WT (GFP^TAG expression) [2] |
| --- | --- | --- | --- | --- | --- | --- | --- | --- | --- | --- | --- | --- | --- |
| N[C@@H](CCCCNC(=O)OC1C#CCCCCC1)C(=O)O (stereo partly drawn) [compound 1, N-ε-((Cyclooct-2-yn-1-yloxy)carbonyl)-L-lysine] | 23.7 | 131.7 | 106.1 | 203.6 | 118.4 | efficient incorporation | observed | 3.3 | 5.9 | 27.6 | 59.6 | 57.5 |  |
| N[C@@H](CCCCNC(=O)OCCOC1C#CCCCCC1)C(=O)O (stereo partly drawn) [compound 2, N-ε-((2-(Cyclooct-2-yn-1-yloxy)ethoxy)carbonyl)-L-lysine] |  |  |  |  |  |  | observed |  |  |  |  |  |  |
| N[C@@H](CCCCNC(=O)OC1CC/C=C/CCC1)C(=O)O (some centres unmarked) [compound 13] | 11.1 | 11.0 | 28.8 | 36.5 | 20.6 | efficient incorporation |  | 6.3 | 6.9 | 15.9 | 22.3 | 33.2 |  |
| N[C@@H](CCCCNC(=O)OC1CC2C=CC1C2)C(=O)O (some centres unmarked) [compound 16] | 5.7 | 46.1 | 114.8 | 100.4 | 96.9 | efficient incorporation |  | 1.5 | 6.9 | 9.4 | 171.6 | 178.3 | highest GFP^TAG expression |
| N[C@@H](CCCCNC(=O)OCC1CC2C=CC1C2)C(=O)O (some centres unmarked) [compound 17] | 10.9 | 57.5 | 76.6 | 163.5 | 108.9 | efficient incorporation |  | 4.2 | 2.6 | 4.3 | 5.7 | 12.8 |  |
